Measured values: US8551509B2, “Skin agent for external use and cosmetic agent including ubiquinone derivative or salt thereof and method using the same” (Showa Denko K.K., priority 2006, dated 2013)

Columns and labels:
[1] = Maximum soluble amount in cosmetic liquid of prescription example 1 (HPLC); type: physicochemical; details: 1.0% added to prescription example 1, insolubles filtered off (1-μm filter paper)
Experimental: Specifically, ubiquinone or ubiquinol was added in an amount corresponding to 1.0%. The resultant suspension was filtered through 1-μm filter paper, and thereby insolubles were removed. The cosmetic liquids B and C were thus prepared.
The final concentrations of ubiquinone and ubiquinol in the cosmetic liquids B and C were measured by HPLC similarly to Example 1, resulting in 0.011% and 0.023%, respectively.

[2] = Maximum ubiquinone concentration in DMEM culture medium including 10% FBS (HPLC); type: physicochemical; details: DMEM with 10% FBS, 0.03% added, stirred 6 hours at room temperature, filtered
Experimental: To a DMEM culture medium including 10% FBS, reagent ubiquinone was added in an amount corresponding to 0.03%. The mixture was stirred with a stirrer at room temperature for 6 hours. The mixture was filtered through a 0.02 µm filter, and a ubiquinone-containing culture medium was prepared.

[3] = Water solubility at normal temperature; type: physicochemical
[4] = system: Normal human skin fibroblast cells NB1RGB; details: 3 days, 0.007 %
Experimental: Normal human skin fibroblast cells NB1RGB (spared from RIKEN) were inoculated to a DMEM culture medium including 10% FBS on a 9 cm Petri dish such that the normal human skin fibroblast cells NB1RGB were approximately 1.0×10^5 in number per ml. The cells were cultured in a CO2 incubator at 37° C. for 7 days to reach confluent while the culture medium was exchanged every 3 days. […] After the culture, the cells were cleaned three times on the Petri dish each with 10 ml of PBS(−), and were released and recovered using trypsin/EDTA. The cells were then resuspended in 1 ml of PBS(−), and were quickly broken with a homogenizer. Insoluble matters were removed by centrifugal separation at 10000 rpm for 10 minutes, and 10 μl of the supernatant was subjected to HPLC. The remainder was combined with an equivalent amount of hexane, and these were sufficiently mixed together to give a turbid liquid. The turbid liquid was subjected to centrifugal separation at 10000 rpm for 3 minutes, and the resultant supernatant hexane layer was analyzed by HPLC.
Column: Shodex F-511A (manufactured by Showa Denko K.K)
Column temperature: 40° C.
Eluent: methanol/water/phosphoric acid=1000/5/1
Detection: photodiode array 210 nm-370 nm
In the HPLC analysis, ubiquinone used in Synthetic Example 1 and ubiquinol immediately after synthesized in Synthetic Example 1 were used as references. […]

[5] = Test of radical scavenging ability (H2-DCFDA fluorescence, AAPH); type: biochemical; details: final concentration 0.006%, 30 minutes after AAPH addition, 37° C.
Experimental: The resultant solution was added to a 10 mM aqueous sodium hydroxide solution such that the concentration of the agent was 1 mM. The radical fluorescence detecting agent was hydrolyzed in the dark at room temperature for 60 minutes and was activated. The liquid was diluted with Dulbecco's phosphate buffered saline (PBS) to give a diluted liquid with a final concentration of 0.01 mM. […]-40 manufactured by Nihon Emulsion Co., Ltd.). […] The mixture thus prepared was used as a test liquid. A test liquid having a final ubiquinone concentration of 0.006% was prepared in the same manner using ubiquinone. A test liquid was prepared as described above except that the ubiquinone solution was replaced by the same volume of distilled water. This test liquid was used as a negative control. […] The mixture was heated to 37° C. After 30 minutes after the addition, the fluorescence intensity at an excitation wavelength of 495 nm and a fluorescence wavelength of 525 nm of the respective liquids was measured. The fluorescence suppression was obtained as radical scavenging ability of ubiquinone and potassium ubiquinol-1,4-diphosphate.

Row | Molecule | final concentration in the cosmetic liquid (maximum soluble amount) [1] | ubiquinone concentration in the culture medium (probably the maximum) [2] | water solubility [3] | Concentration in cells after culture: Ubiquinone [4] | Fluorescence intensity (Ex 495/Em 525 nm: relative value) [5] | Radical scavenging ability (Fluorescence suppression (%)) [5]
1 | COc1c(O)c(C)c(C/C=C(\C)CC/C=C(\C)CC/C=C(\C)CC/C=C(\C)CC/C=C(\C)CC/C=C(\C)CC/C=C(\C)CC/C=C(\C)CC/C=C(\C)CCC=C(C)C)c(O)c1OC [ubiquinol] | 0.023% |  |  |  |  | 
2 | COC1=C(OC)C(=O)C(C/C=C(\C)CC/C=C(\C)CC/C=C(\C)CC/C=C(\C)CC/C=C(\C)CC/C=C(\C)CC/C=C(\C)CC/C=C(\C)CC/C=C(\C)CCC=C(C)C)=C(C)C1=O [ubiquinone, 2,3-dimethoxy-5-methyl-6-polyprenyl-1,4-benzoquinone] | 0.011% | 0.007% | less than 100 ppm | 2000 ng/mL | 13315 relative value | 41%
3 | tetrapotassium ubiquinol-1,4-diphosphate |  |  |  |  | 5001 relative value | 78%
